Molecules are shown by their SMILES.

The term melting point denotes the temperature of the solid-liquid transition.

`COc1ccc(C(=O)Nc2c(Cl)cc(C(=O)O)cc2Cl)c2cc(C(C)C)oc12` displayed a melting point of 279 °C.

For the compound `C[C@H](O)Cn1c(=O)c(Oc2ccc(F)cc2F)cc2cnc(N[C@@H](C)CO)nc21`, the melting point was in the range of 182 to 184 °C. As for `CC12CCC(OS(=O)(=O)C(F)(F)F)=CC1=CCC1C2CCC2(C)C(C(=O)N(C(=S)NC3CCCCC3)C3CCCCC3)CCC12` (configuration not stated), the melting point lay in the range of 123 to 124 °C. With `CC(C)C(C)(C#N)N1C(=O)c2cccc(O)c2C1=O` (configuration not stated) the figure was 110 to 111 °C; with `O=c1ccc2c(-n3cnc([N+](=O)[O-])c3)nccc2[nH]1`, 298 to 300 °C; with `COc1cc(Br)ccc1N`, 56.5 to 58 °C. With `Cc1c[nH]c(-c2ccccc2)c1-c1ccccc1` the figure was 163 to 164 °C; with `Clc1ccc2nc(Cl)nc(-c3ccccc3Cl)c2c1`, 175 to 176 °C. `O=S1(=O)N=C(O)C(c2ccccc2)=N1` displayed a melting point of 202 to 204 °C.

`CC(C)[C@H](NC(=O)OCc1ccccc1)C(=O)c1ccc(OCc2ccccc2)cc1` registered a melting point of 75 to 77 °C. With `Cc1ccc(-c2nnnn2C)c(S(N)(=O)=O)c1` the figure was 161 to 171 °C; with `O=C(Nc1ccc(Cl)cc1)C(F)(F)C(O)(Cn1cncn1)c1ccc(F)cc1F` (configuration not stated), 86 to 87 °C. Under `CC(=O)OC1CCC2(C)C(CCC3C2CCC2(C)C(=O)CCC32O)C1` (configuration not stated) stands 182 to 184 °C. Consider `COC(=O)C(C)(C)Oc1ccc(C(=O)CN2CCN(c3ccncc3)CC2)cc1`, for which the melting point was 88 to 90 °C. Under `Cc1ccc2c(c1)C(=O)c1ccccc1CC2` stands 34 to 35 °C. `O=C(O)C(C1CC(Cl)=NO1)N1C(=O)c2ccccc2C1=O` (configuration not stated) displayed a melting point of 178 to 179 °C. With `CCOc1cc(C(CC(=O)OC)N2Cc3ccccc3C2=O)ccc1OC` (configuration not stated) the figure was 78 to 80 °C; with `COc1ccc2c(c1)CNc1cc(Cl)ccc1O2`, 111 to 113 °C. `O=[N+]([O-])c1cc(OCc2ccccc2)c2ccccc2c1CCO` came in with a melting point of 82 to 90 °C. Take `Cc1cccc2cc3c(=O)[nH]cc(C(=O)O)c3nc12`: the melting point was more than 300 °C.

`CC1(C)Oc2ccc(C#N)cc2C(Nn2ccccc2=O)C1(C)O` (configuration not stated) registered a melting point of 184 to 187 °C.

In the case of `COC(=O)c1cc(Cl)c(NC(C)=O)c2c1OCCC2`, the melting point was determined as 184 °C. In the case of `Ic1sc2ccccc2c1Oc1ccc(OCc2ccccc2)cc1`, the melting point was 87 to 92 °C. `N#CC(F)(F)C(O)(Cn1cncn1)c1ccc(F)cc1F` (configuration not stated) had a melting point of 130 to 132 °C. For the compound `O=C(CCCCCCOc1ccc(OCc2ccccc2)cc1)c1nnc(COCc2ccccc2)o1`, the melting point lay in the range of 95 to 97 °C. Under `CN1CCN(C2=Nc3cc(Br)ccc3-n3ccc4cc(Br)cc2c43)CC1` stands 158 to 159 °C; under `CSc1sc(C(C)=O)cc1[N+](=O)[O-]`, 191 to 193 °C; under `C[C@]1(CN2CCN(Nc3ccc(C(F)(F)F)cc3)CC2)Cn2cc([N+](=O)[O-])nc2O1`, 192 to 195 °C.

For the compound `CC(C)NC1=NS(=O)(=O)c2cccc(Cl)c2N1`, the melting point is 124 to 125 °C.

`CCOC(=O)c1cc(NC(=O)C(N)Cc2ccc(Cl)c(Cl)c2)c[nH]1` (configuration not stated): the melting point is 134 to 136 °C.

For the compound `CCOC(=O)C(=CNN(C)C=O)C(=O)c1cc(F)c(F)c(F)c1F`, the melting point worked out at 189 °C.

The compound `CC(C)(NC(=O)C1=C(C(=O)Nc2cc(OC3CCCC3)c(Cl)cc2F)CCCC1)c1ccccc1` had a melting point of 206 to 207 °C. Under `COc1nc(NN)c(C(F)(F)F)cc1Cl` stands 140 to 142 °C. With `O=C(O)CCCC#CCC1=CC(O)CC1=O` (configuration not stated) the figure was 65 to 71 °C; with `O=[N+]([O-])c1ccc(-c2cc[nH]n2)cc1`, 196 to 197 °C; with `CCCCOc1ccc(CCNc2ncnc(CC)c2C(=O)O)cc1`, 208 to 211 °C. `CCCCC(CC)Cn1c2cc(CO)ccc2c2ccc(CO)cc21` (configuration not stated): the melting point lay in the range of 119 to 120 °C. With `COc1ccc2c(=O)c(-c3ccc(C)cc3)coc2c1OC` the figure was 135 °C; with `COC(=O)C1C2CCC(C2)C1N(C)S(=O)(=O)c1ccc(O)cc1` (configuration not stated), 163 to 164 °C. `O=C(Nc1ccccc1)N1CC2CCC(C1)O2`: the melting point is 184 to 186 °C.

The compound `O=C(O)/C=C/c1ccc(OCCN2CCCC2)cc1` had a melting point of 183 °C. With `Oc1ccc2cc(I)ccc2c1` the figure was 136 to 138 °C; with `CN1CC(CCCl)Oc2ccc(Cl)cc2C1=O` (configuration not stated), 101 to 103 °C; with `Cc1ccc(-n2c(=O)[nH]c3ccccc3c2=O)cc1`, 267 °C. Compound `CCCCc1c(NCCCO)cnn(C(C)(C)C)c1=O` registered a melting point of 106 to 108 °C. With `Oc1ccc(CCNc2ncnc3c(F)ccc(F)c23)cc1` the figure was 221 to 222 °C; with `COc1ccc(C2=CCN(Cc3n[nH]c4c(F)cccc34)CC2)cc1`, 183 to 185 °C. Consider `S=C=Nc1cc(Cl)ccc1N1CCOCC1`, for which the melting point is 86 to 87 °C. With `O=C(O)c1cc2c(s1)-c1ccccc1OC2C1=CCCC=C1` (configuration not stated) the figure was 258 to 260 °C; with `O=C(Nc1ccc(-c2nn(C(=O)c3ccccc3)c3c2Cc2ccccc2-3)cc1)c1ccccc1`, 241 °C. With `O=c1c2c(Cc3ccccc3)n[nH]c2c2cccnc2n1-c1ccccc1` the figure was 305 to 308 °C; with `O=S1(=O)c2ccccc2C(c2ccccc2)N1CCN1CCC(Cc2c[nH]c3ccc(F)cc23)CC1` (configuration not stated), 175 °C.

`COc1ccc(CC2N(C)CCC(OC)(OC)C2(C)C)cc1` (configuration not stated) returned a melting point of 91 to 92.5 °C. With `O=[N+]([O-])c1nccn1C1OC(CO)C(O)C1O` (configuration not stated) the figure was 160 °C. Under `CNS(=O)(=O)CC(N)=O` stands 104 to 108 °C; under `COc1ccccc1Oc1c(Cl)nc(N)nc1Cl`, 190 °C; under `COC(=O)C1N=c2c(ccc3c2=CC=N3)O1` (configuration not stated), 207 to 208 °C.

`N=C(N)Nc1nc(CSCCNc2[nH]ccc2[N+](=O)[O-])cs1` registered a melting point of 196 to 200 °C. `O=C(O)c1cc2cccnc2[nH]1` had a melting point of more than 260 °C. Consider `CCCCCC(=O)COS(=O)(=O)c1ccc(OCC)cc1`, for which the melting point lay within 35 to 35.5 °C. With `CC(C)(C)CNS(=O)(=O)c1cccc(NC(=O)c2cnn3c(C(F)(F)F)cc(-c4ccc(C(F)(F)F)cc4)nc23)c1` the figure was 231 °C. For the compound `COc1ccc2c(c1)CCC(c1ccc(F)cc1)C2=O` (configuration not stated), the melting point is 124 to 127 °C. `CN(C)S(=O)(=O)c1ccc2c(c1)S(=O)(=O)N=C1CCCN12` had a melting point of 251 to 253 °C. Consider `Nc1ccc(S(=O)(=O)Nc2ccc(C(O)(C(F)(F)F)C(F)(F)F)cc2)cc1`, for which the melting point is 160 to 161 °C. With `Cc1cc(-n2cccn2)c2cccc(OCc3c(Cl)ccc(S(=O)(=O)N4CCC(CO)CC4)c3Cl)c2n1` the figure was 138 °C.

`CNc1nc2c(cc1NC(=O)N1CCN(c3cc(OC)cc(OC)c3)CC1)CCC2` displayed a melting point of 148 to 150 °C. `CSc1nnc(SCC(=O)C23CC4CC(CC(C4)C2)C3)s1` yielded a melting point of 134 to 135 °C.

(Values after a melting point compilation (Tetko et al.; mined from patent text by program, amines drawn as free bases though some values may be those of a salt).)
